According to ChEMBL document CHEMBL5729684, “Pharmaceutical compounds” (2023):

Assay: Plaque Reduction Assay: Hep-G2 cells (ECACC, 85011430) were passaged in flasks and seeded in 24-well plates in DMEM containing antibiotics and supplemented with 10% FBS. During inoculation and subsequent incubation, cells were cultured in DMEM containing 2% FBS. 100 plaque forming unit/well of RSV (RSV A2 ECACC, 0709161v) was mixed with eight serial dilutions of compound. Subsequently, 100 μL of the virus/compound mixtures was added to confluent Hep-G2 cell monolayers. The cells and virus/compound mixtures were incubated at 37° C. in a humidified 5% CO2 incubator for 2 h prior to removal of the inoculum and addition of 1 mL of overlay (DMEM containing 2% FBS and 0.8% CMC) containing compound dilutions. The cells and were incubated at 37° C. in a humidified 5% CO2 incubator for 2 days.Cells were washed with PBS before adding 75/25% […] EtOH/MeOH, for 3 min. Fixative was removed and plates were washed with PBS. A pre-titrated amount of the primary antibody was added in 200 μL PBS/2% milk powder, and plates incubated for 90 min at 37° C. The plates were washed 3 times with PBS/0.05% Tween20 before addition of rabbit anti-goat horse radish peroxidase in 200 μL PBS/2% milk powder, and incubated for 1 h at 37° C. Following three wash steps with PBS/0.05% Tween20, 200 μL ready-to-use TrueBlue was added and plates were incubated at rt for 10-15 min before washing with water. After removal of water, plates were air-dried in the dark.Plates were scanned and analysed using the Immunospot S6 Macro analyser, which is equipped with BioSpot analysis software for counting immunostained plaques (virospots). Plaque counts were used to calculate % c infection relative to the mean of the plaque count in the virus control wells for RSV. The EC50 value was calculated as 50% reduction in signal, respectively, by interpolation of inhibition curves fitted with a 4-parameter nonlinear regression with a variable slope in Dotmatics.
Settings: HepG2

In order of rising EC50:
1. Cc1nc(NC(C)C)ccc1-c1nn2cccnc2c1C(=O)N[C@H]1N=C(c2ccccc2)c2cccc(F)c2NC1=O  0.025 µM
2. Cc1ccnc2c(C(=O)N[C@H]3N=C(c4ccccc4)c4cccc(F)c4NC3=O)c(-c3ccccc3F)nn12  0.027 µM
3. Cc1nc(NC(C)C)ccc1-c1nn2cccnc2c1C(=O)N[C@H]1N=C(c2ccccc2)c2ccccc2NC1=O  0.041 µM
4. Cc1cc(NC(C)C)ncc1-c1nn2cccnc2c1C(=O)N[C@H]1N=C(c2ccccc2)c2cccc(F)c2NC1=O  0.074 µM
5. O=C(N[C@H]1N=C(c2ccccc2)c2cccc(F)c2NC1=O)c1c(-c2ccccc2)nn2cccnc12  0.09 µM
